{"source": "patent US10457684B2", "about": "“[1,2,3]triazolo[4,5-d]pyrimidine derivatives” (Hoffmann-La Roche Inc., priority 2016, dated 2019)", "key": {"human CB2 receptor": {"target": "human CB2 receptor (Homo sapiens (Human), UniProt P34972)", "sequence (P34972 whole entry)": "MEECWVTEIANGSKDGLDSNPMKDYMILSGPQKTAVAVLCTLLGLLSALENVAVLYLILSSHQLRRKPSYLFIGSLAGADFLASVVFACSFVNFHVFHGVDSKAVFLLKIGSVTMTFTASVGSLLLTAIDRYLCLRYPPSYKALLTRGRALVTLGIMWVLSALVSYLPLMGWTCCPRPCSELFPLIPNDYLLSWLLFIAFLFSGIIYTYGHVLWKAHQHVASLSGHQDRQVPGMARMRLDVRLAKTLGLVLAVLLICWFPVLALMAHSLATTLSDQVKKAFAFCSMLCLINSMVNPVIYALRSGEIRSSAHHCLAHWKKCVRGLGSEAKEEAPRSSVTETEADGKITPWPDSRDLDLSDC", "assay": "Radioligand binding assay, [3H]-CP-55,940, membranes of HEK cells expressing human CNR2", "details": "2.6 nM [3H]-CP-55,940, HEK cell membranes, 1 h at 30° C.", "description": "(§1) Radioligand Binding Assay\n(§2) The affinity of the compounds of the invention for cannabinoid receptors was determined using recommended amounts of membrane preparations (PerkinElmer) of human embryonic kidney (HEK) cells expressing the human CNR1 or CNR2 receptors in conjunction with 1.5 or 2.6 nM [3H]-CP-55,940 (Perkin Elmer) as radioligand, respectively. Binding was performed in binding buffer (50 mM Tris, 5 mM MgCl2, 2.5 mM EDTA, and 0.5% (wt/vol) fatty acid free BSA, pH 7.4 for CB1 receptor and 50 mM Tris, 5 mM MgCl2, 2.5 mM EGTA, and 0.1% (wt/vol) fatty acid free BSA, pH 7.4 for CB2 receptor) in a total volume of 0.2 mL for 1 h at 30° C. shaking. The reaction was terminated by rapid filtration through microfiltration plates coated with 0.5% polyethylenimine (UniFilter GF/B filter plate; Packard). Bound radioactivity was analyzed for Ki using nonlinear regression analysis (Activity Base, ID Business Solution, Limited), with the Kd values for [^3H]CP55,940 determined from saturation experiments.\nThe compounds according to formula (I) have an activity in the above assay (Ki) particularly of 0.5 nM to 10 μM, more particularly of 0.5 nM to 3 μM and most particularly of 0.5 nM to 100 nM."}, "human CB1 receptor": {"target": "human CB1 receptor (Homo sapiens (Human), UniProt P21554)", "sequence (P21554 whole entry)": "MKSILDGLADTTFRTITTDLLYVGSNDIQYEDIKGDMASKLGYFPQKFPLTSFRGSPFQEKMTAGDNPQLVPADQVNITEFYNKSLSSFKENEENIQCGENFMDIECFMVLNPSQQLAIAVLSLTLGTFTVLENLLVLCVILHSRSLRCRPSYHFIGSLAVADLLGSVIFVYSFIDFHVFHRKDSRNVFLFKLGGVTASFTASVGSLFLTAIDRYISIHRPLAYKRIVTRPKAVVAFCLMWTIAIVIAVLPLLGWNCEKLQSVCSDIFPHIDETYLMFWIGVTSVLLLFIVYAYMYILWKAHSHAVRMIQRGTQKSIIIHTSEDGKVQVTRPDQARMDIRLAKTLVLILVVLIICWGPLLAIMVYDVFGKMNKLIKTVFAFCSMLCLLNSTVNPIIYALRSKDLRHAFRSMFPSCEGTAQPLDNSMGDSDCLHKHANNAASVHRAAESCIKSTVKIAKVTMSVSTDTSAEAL", "assay": "Radioligand binding assay, [3H]-CP-55,940, membranes of HEK cells expressing human CNR1", "details": "1.5 nM [3H]-CP-55,940, HEK cell membranes, 1 h at 30° C.", "description": "as §1, §2"}}}
{"compound": "Cc1nonc1Cn1nnc2c(N3CCC4(C3)N=N4)nc(C(C)(C)C)nc21", "note": "[Example 1, 5-tert-Butyl-3-[(4-methyl-1,2,5-oxadiazol-3-yl)methyl]-7-(1,2,5-triazaspiro[2.4]hept-1-en-5-yl)-3H-[1,2,3]triazolo[4,5-d]pyrimidine]", "values": [{"measurement": "Ki", "setting": "human CB2 receptor", "result": 16.1, "unit": "nM"}, {"measurement": "Ki", "setting": "human CB1 receptor", "result": 2960, "unit": "nM"}]}
{"compound": "FC(F)(F)c1ccccc1Cn1nnc2c(N3CCC4(C3)N=N4)nc(C(F)(F)c3ccccc3)nc21", "note": "[Example 2, 5-[Difluoro(phenyl)methyl]-7-(1,2,5-triazaspiro[2.4]hept-1-en-5-yl)-3-{[2-(trifluoromethyl)phenyl]methyl}-3H-[1,2,3]triazolo[4,5-d]pyrimidine]", "values": [{"measurement": "Ki", "setting": "human CB2 receptor", "result": 0.8, "unit": "nM"}, {"measurement": "Ki", "setting": "human CB1 receptor", "result": 993, "unit": "nM"}]}
{"compound": "CC(C)(C)c1nc(N2CCC3(C2)N=N3)c2nnn(Cc3ccccc3Cl)c2n1", "note": "[Example 3, 5-tert-Butyl-3-[(2-chlorophenyl)methyl]-7-(1,2,5-triazaspiro[2.4]hept-1-en-5-yl)-3H-[1,2,3]triazolo[4,5-d]pyrimidine]", "values": [{"measurement": "Ki", "setting": "human CB2 receptor", "result": 3.3, "unit": "nM"}, {"measurement": "Ki", "setting": "human CB1 receptor", "result": 321, "unit": "nM"}]}
{"compound": "CC(C)(C)c1nc(N2CCC(F)(F)C2)c2nnn(Cc3ccccc3C3(C(F)(F)F)N=N3)c2n1", "note": "[Example 4, 5-tert-Butyl-7-(3,3-difluoropyrrolidin-1-yl)-3-({2-[3-(trifluoromethyl)-3H-diaziren-3-yl]phenyl}methyl)-3H-[1,2,3]triazolo[4,5-d]pyrimidine]", "values": [{"measurement": "Ki", "setting": "human CB2 receptor", "result": 4.2, "unit": "nM"}, {"measurement": "Ki", "setting": "human CB1 receptor", "result": 488, "unit": "nM"}]}
{"compound": "C#Cc1ccccc1Cn1nnc2c(N3CCC4(C3)N=N4)nc(C(C)(C)C)nc21", "note": "[Example 5, 5-tert-Butyl-3-[(2-ethynylphenyl)methyl]-7-(1,2,5-triazaspiro[2.4]hept-1-en-5-yl)-3H-[1,2,3]triazolo[4,5-d]pyrimidine]", "values": [{"measurement": "Ki", "setting": "human CB2 receptor", "result": 5.6, "unit": "nM"}, {"measurement": "Ki", "setting": "human CB1 receptor", "result": 132, "unit": "nM"}]}
{"compound": "FC(F)(c1ccccc1)c1nc(N2CCC3(C2)N=N3)c2nnn(Cc3ccccc3Cl)c2n1", "note": "[Example 6, 3-[(2-Chlorophenyl)methyl]-5-[difluoro(phenyl)methyl]-7-(1,2,5-triazaspiro[2.4]hept-1-en-5-yl)-3H-[1,2,3]triazolo[4,5-d]pyrimidine]", "values": [{"measurement": "Ki", "setting": "human CB2 receptor", "result": 9.9, "unit": "nM"}, {"measurement": "Ki", "setting": "human CB1 receptor", "result": 799, "unit": "nM"}]}
{"compound": "Cc1nonc1Cn1nnc2c(N3CCC4(C3)N=N4)nc(C(F)(F)c3ccccc3)nc21", "note": "[Example 7, 5-[Difluoro(phenyl)methyl]-3-[(4-methyl-1,2,5-oxadiazol-3-yl)methyl]-7-(1,2,5-triazaspiro[2.4]hept-1-en-5-yl)-3H-[1,2,3]triazolo[4,5-d]pyrimidine]", "values": [{"measurement": "Ki", "setting": "human CB2 receptor", "result": 45.5, "unit": "nM"}, {"measurement": "Ki", "setting": "human CB1 receptor", "result": 5410, "unit": "nM"}]}
{"compound": "CC(C)(C)c1nc(N2CCC(F)(F)C2)c2nnn(Cc3ccc(C4(C(F)(F)F)N=N4)cc3Cl)c2n1", "note": "[Example 8, 5-tert-Butyl-3-({2-chloro-4-[3-(trifluoromethyl)-3H-diaziren-3-yl]phenyl}methyl)-7-(3,3-difluoropyrrolidin-1-yl)-3H-[1,2,3]triazolo[4,5-d]pyrimidine]", "values": [{"measurement": "Ki", "setting": "human CB2 receptor", "result": 55.6, "unit": "nM"}, {"measurement": "Ki", "setting": "human CB1 receptor", "result": "> 10000", "unit": "nM"}]}
{"compound": "C#CCCC1(CCNC(=O)c2nonc2Cn2nnc3c(N4CCC(F)(F)C4)nc(C(C)(C)C)nc32)N=N1", "note": "[Example 9, 4-{[5-tert-Butyl-7-(3,3-difluoropyrrolidin-1-yl)-3H-[1,2,3]triazolo[4,5-d]pyrimidin-3-yl]methyl}-N-{2-[3-(but-3-yn-1-yl)-3H-diaziren-3-yl]ethyl}-1,2,5-oxadiazole-3-carboxamide]", "values": [{"measurement": "Ki", "setting": "human CB2 receptor", "result": 1160, "unit": "nM"}, {"measurement": "Ki", "setting": "human CB1 receptor", "result": "> 10000", "unit": "nM"}]}
{"compound": "C#CCCC1(CCNC(=O)c2nonc2Cn2nnc3c(N4CC[C@H](O)C4)nc(C(C)(C)C)nc32)N=N1", "note": "[Example 10, 4-({5-tert-Butyl-7-[(3S)-3-hydroxypyrrolidin-1-yl]-3H-[1,2,3]triazolo[4,5-d]pyrimidin-3-yl}methyl)-N-{2-[3-(but-3-yn-1-yl)-3H-diaziren-3-yl]ethyl}-1,2,5-oxadiazole-3-carboxamide]", "values": [{"measurement": "Ki", "setting": "human CB2 receptor", "result": 200, "unit": "nM"}, {"measurement": "Ki", "setting": "human CB1 receptor", "result": "> 10000", "unit": "nM"}]}
{"compound": "C#Cc1ccccc1Cn1nnc2c(N3CCC4(C3)N=N4)nc(C(F)(F)c3ccccc3)nc21", "note": "[Example 11, 5-[Difluoro(phenyl)methyl]-3-[(2-ethynylphenyl)methyl]-7-(1,2,6-triazaspiro[2.4]hept-1-en-6-yl)triazolo[4,5-d]pyrimidine]", "values": [{"measurement": "Ki", "setting": "human CB2 receptor", "result": 19, "unit": "nM"}, {"measurement": "Ki", "setting": "human CB1 receptor", "result": 465, "unit": "nM"}]}
{"compound": "C#Cc1cccc(C2(C(F)(F)F)N=N2)c1Cn1nnc2c(N3CCC(F)(F)C3)nc(C(F)(F)c3ccccc3)nc21", "note": "[Example 12, 5-[Difluoro(phenyl)methyl]-7-(3,3-difluoropyrrolidin-1-yl)-3-[[2-ethynyl-6-[3-(trifluoromethyl)diazirin-3-yl]phenyl]methyl]triazolo[4,5-d]pyrimidine]", "values": [{"measurement": "Ki", "setting": "human CB2 receptor", "result": 31, "unit": "nM"}, {"measurement": "Ki", "setting": "human CB1 receptor", "result": 3390, "unit": "nM"}]}
{"compound": "C#Cc1cccc(C2(C(F)(F)F)N=N2)c1Cn1nnc2c(N3CCC(F)(F)C3)nc(C(C)(C)C)nc21", "note": "[Example 13, 5-tert-Butyl-7-(3,3-difluoropyrrolidin-1-yl)-3-[[2-ethynyl-6-[3-(trifluoromethyl)diazirin-3-yl]phenyl]methyl]triazolo[4,5-d]pyrimidine]", "values": [{"measurement": "Ki", "setting": "human CB2 receptor", "result": 9, "unit": "nM"}, {"measurement": "Ki", "setting": "human CB1 receptor", "result": 147, "unit": "nM"}]}
{"compound": "C#Cc1cccc(C2(C(F)(F)F)N=N2)c1Cn1nnc2c(N3CC[C@H](O)C3)nc(C(C)(C)C)nc21", "note": "[Example 14, (3S)-1-[5-tert-Butyl-3-[[2-ethynyl-6-[3-(trifluoromethyl)diazirin-3-yl]phenyl]methyl]triazolo[4,5-d]pyrimidin-7-yl]pyrrolidin-3-ol]", "values": [{"measurement": "Ki", "setting": "human CB2 receptor", "result": 12, "unit": "nM"}, {"measurement": "Ki", "setting": "human CB1 receptor", "result": "> 10000", "unit": "nM"}]}
{"compound": "C#Cc1cccc(C2(C(F)(F)F)N=N2)c1Cn1nnc2c(N3CC[C@H](O)C3)nc(C(F)(F)c3ccccc3)nc21", "note": "[Example 15, (3S)-1-[5-[Difluoro(phenyl)methyl]-3-[[2-ethynyl-6-[3-(trifluoromethyl)diazirin-3-yl]phenyl]methyl]triazolo[4,5-d]pyrimidin-7-yl]pyrrolidin-3-ol]", "values": [{"measurement": "Ki", "setting": "human CB2 receptor", "result": 58, "unit": "nM"}, {"measurement": "Ki", "setting": "human CB1 receptor", "result": "> 10000", "unit": "nM"}]}
